Measured values published in patent publication US7081476B2, “Tocopherol enriched compositions for reducing IL6 levels” (Galileo Pharmaceuticals, Inc., priority 2001, dated 2006).
Where “and” joins values, the source holds several entries; their conditions need not be identical. Equal values may be shown once. Entries after “also recorded” stand apart in the source; their conditions may differ.

Experiments:
expression of ELAM = test: Cell-ELAM (E-selectin) assay in LPS/IL-1β stimulated endothelial cells; format: cell-based; details: for ELAM production (in words): activated endothelial cells
Experimental: Cell-ELAM Assay. Endothelial-Leukocyte Adhesion Molecule (ELAM), also known as E-selectin, is expressed on the surface of endothelial cells. In this assay, lipopolysaccharide (LPS) and IL-1β are used to stimulate the expression of ELAM; test agents are tested for their abilities to reduce this expression, in accordance with studies showing that reduction of leukocyte adhesion to endothelial cell surface is associated with decreased cellular damage (e.g., Takada, M., Et al., Transplantation 64: 1520–25, 1997; Steinberg, J. B., et al., J. Heart Lung Trans. 13:306–313, 1994).
Endothelial cells may be selected from any of a number of sources and cultured according to methods known in the art; including, for example, coronary artery endothelial cells, human brain microvascular endothelial cells (HBMEC; Hess, D. C., et al., Neurosci. Lett. 213(1): 37–40, 1996), or lung endothelial cells. Cells are conveniently cultured in 96-well plates. Cells are stimulated by adding a solution to each well containing 10 μg/ml LPS and 100 pg/ml IL-1β for 6 hours in the presence of test agent (specific concentrations and time may be adjusted depending on the cell type). Treatment buffer is removed and replaced with pre-warmed Fixing Solution® (100 μl/well) for 25 minutes at room temperature. Cells are then washed 3×, then incubated with Blocking Buffer (PBS+2% FBS) for 25 minutes at room temperature. Blocking Buffer containing Monoclonal E-Selectin Antibody (1:750, Sigma Catalog #S-9555) is added to each well. Plates are sealed and stored at 4° overnight. Plates are washed 4× with 160 μL Blocking Buffer per well. Second Antibody-HRP diluted 1:5000 in Blocking Buffer is then added (100 μL/well), and plates are incubated at room temperature (protected from light) for two hours. Plates are then washed 4× with Blocking Buffer before addition of 100 μL of ABTS Substrate solution at room temperature (Zymed, Catalog #00–2024). Wells are allowed to develop for 35 minutes, before measurement at 402 nm in a Fluoroskan® Reader with shake program for 10 seconds. Positive results are recorded as a decrease in ELAM concentration in tested wells, as compared to control wells.

[1] = system: CRP production in human Hep3B cells; test: Human Hep3B cells CRP assay (IL-1β, IL-6 and dexamethasone stimulated, CRP ELISA); format: cell-based; details: for reducing CRP production/levels (in words): Hep3B cells stimulated with IL-1B, IL-6 and dexamethasone
Excerpt: A. Human Hep3B Cells—CRP assay. Hep3B Cell Line is obtained from the American Type Culture Collection (ATCC Catalog No. HB-8064). The Hep3B cell line was derived from liver tissue of […]. The cells are epithelial in morphology and produce tumors in nude mice. The cells produce α-fetoprotein, hepatitis B surface antigen, albumin, α-2-macroglobulin, α-1-antitrypsin, transferrin, plasminogen, complement C3 and β-lipoprotein (Knowles B B, et al., Science, 1980, 209:497–499). This cell line has been widely used to study hepatocyte cytokine and acute phase protein release (e.g., Damtew B, et al., 1993, J Immunol 150:4001–4007).
HEP3B cells are grown in Minimum Essential Medium (MEM; GIBCO) supplemented with 10% Fetal Bovine Serum (FBS; Hyclone), 1× Penicillin/Streptomycin (GIBCO, Cat #. 15140-122) and 0.1 mM non-essential amino acids (GIBCO, Catalog No. 11140-050). Cells are thawed and transferred to warm medium according to standard methods known in the art.
Cells are incubated in flasks at 37° C. with 5% CO2 in an air atmosphere incubator. HEP3B growth media is changed every 2 days until the cells reach 70–80% confluence (approx. 3–4 days). For assay, the cells are transferred to 96-well plates, seeded at 5000 cells per well in culture media, and left to grow for 7 days in a 37° C. incubator (air supplemented with 5% CO2). Media is replaced daily until assay.
Test compounds are diluted into “Stimulus Buffer” (MEM medium containing 0.1 mM non-essential amino acids, 1× penicillin/streptomycin, 10% FBS with 10 ng/ml IL-1β, 20 ng/ml IL-6 and 1 μM dexamethasone. Media is removed from the cells and is replaced with 200 μl of test dilution. Cells are returned to the incubator for three days at 37° C. CRP ELISA is then performed on supernatant from the cells, as described below.
Costar EIA/RIA plates are coated with rabbit anti-human CRP (DAKO) diluted 1:4000 in carbonate buffer (100 μl/well) for 45 minutes at 37° C. Plates are then washed 5× with CRP washing buffer (50 mM Tris-HCI, 0.3M NaCl, […], pH 8.0) using an automatic plate washer. Plates may be dried, covered and refrigerated until use. Supernatant (100 μl) is removed from each well of the test plates and added to the corresponding well of a precoated ELISA plate.
100 μl HRP-conjugated rabbit anti-human CRP (DAKO) diluted 1:500 (in CRP wash buffer) is added to each well, followed by incubation for 30 minutes at 37° C. […] Finally, 50 μl of 1M H2SO4 is added to each well and absorbance at 450 nm is immediately measured in a microtiter spectrophotometer.
CRP measured as above is normalized to cell count per well, using a cell viability assay, such as the Cell Tracker Green assay. […] Plates are immediately read using a Fluoroskan® flourometer with a 485 excitation/538 emission filter pair.

[2] = system: inflammation secondary to exposure to arachidonic acid; test: Arachidonic acid mouse ear inflammation model; format: in vivo; details: topical to left ear, CD-1 mice, one hour after treatment
Experimental: This assay measures the ability of test compounds to prevent or reduce inflammation secondary to oxazolone or arachidonic acid.
A. Arachidonic acid. Albino male CD-1 mice, 7–9 weeks old were used in this test. A 20% (w/v) arachidonic acid solution in acetone is prepared. Twenty microliters of the arachidonic acid solution is applied to the dorsal left ear of the mouse. Immediately thereafter, test compounds (20 μL in 70% ethanol/30% propylene glycol) are applied to the left ear. The untreated right ears served as control. Mice are sacrificed by CO2 inhalation, one hour after treatment. The left and right ears are removed and 7 mm punch biopsies taken from each. The punch biopsies are weighed, and the differences calculated. […] Other non-alpha-tocopherol enriched tocopherol compositions can be tested for their ability to reduce inflammation in this model.

[3] = system: IL-6 present in edematous fluid; test: Carrageenan-induced rat paw edema assay, IL-6 in edematous fluid; format: in vivo; details: rats

Compound | ELAM production (in words) (expression of ELAM) | activity in ELAM assay (expression of ELAM; at 1000 micromolar) | reducing CRP production/levels (in words) [1] | EC50 (expression of ELAM; endothelial cells, LPS and IL-1β, read-out: EC50 reduce the expression of ELAM) | reducing CRP levels ([1]; at about 3 to about 10 micromolar, Hep3B cells) | reduce inflammation secondary to arachidonic acid (ear punch weight difference) [2] | IL-6 levels in the edematous fluid (in words) ([3]; 10–100 mg/kg oral pretreatment over 3 days) | reduction in IL-6 present in edematous fluid ([3]; 3 days, 10–100 mg/kg/day oral pre-treatment, p<0.001)
Cc1c(C)c2c(c(C)c1O)CC[C@@](C)(CCC[C@H](C)CCC[C@H](C)CCCC(C)C)O2 (relative stereo) [alpha-tocopherol, [2R-2R*(4R*,8R*)]-3,4-dihydro-2,5,7,8-tetramethyl-2-(4,8,12-trimethyltridecyl)-2H-1-benzopyran-6-ol, reference compound] | not | not active |  |  |  |  |  | 
Cc1cc(O)cc2c1O[C@](C)(CCC[C@H](C)CCC[C@H](C)CCCC(C)C)CC2 (relative stereo) [delta-tocopherol, [2R-[2R*(4R*,8R*)]]-3,4-dihydro-2,8-dimethyl-2-(4,8,12-trimethyltridecyl)-2H-1-benzo-pyran-6-ol] | decreased |  | effective; also recorded: able to reduce | 300 to 1000 µM and 600 µM |  |  |  | 
Cc1cc(O)c(C)c2c1OC(C)(CCCC(C)CCCC(C)CCCC(C)C)CC2 (stereo not drawn) [beta-tocopherol, 3,4-dihydro-2,5,8-trimethyl-2-(4,8,12-trimethyltridecyl)-2H-1-benzopyran-6-ol] | decreased |  | effective; also recorded: able to reduce |  | about 50% |  |  | 
Cc1c(O)cc2c(c1C)OC(C)(CCCC(C)CCCC(C)CCCC(C)C)CC2 (stereo not shown) [gamma-tocopherol, 3,4-dihydro-2,7,8-trimethyl-2-(4,8,12-trimethyltridecyl)-2H-1-benzyopyran-6-ol] | decreased |  | effective; also recorded: able to reduce |  |  | able to reduce inflammation | significantly reduced | 42
